We go through 1 molecule from patent publication US11147798B2, “Use of carbamate compound for prevention, alleviation, or treatment of demyelinating disease” (SK BIOPHARMACEUTICALS CO., LTD., priority 2016, dated 2021).

Several values for one entry are separate records, joined by “and”; a condition that tells them apart may be missing. Equal entries are not always repeated.

Assay [1] deals with Experimental Autoimmune Encephalomyelitis (EAE) model. In words: Systemic motor symptom alleviation (EAE clinical score) in an Experimental Autoimmune Encephalomyelitis (EAE) model. The conditions noted are these: for EAE clinical score: mean±SEM. Type of assay: in vivo, male C57BL/6 mice. As for the experimental part:
For this experiment, male C57BL/6 mice were purchased from Orient Bio, Inc. of Korea. The mice were placed in a wire mesh cage under conditions of ambient temperature of 20 to 24° C., relative humidity of 55 to 75%, an automatically controlled light-and-darkness cycle of 12 hours and free access to feed (purchased from Agri Brands Purina Korea, Inc.) and water. The mice were housed and maintained in accordance with the Laboratory Animal Care Standards of the Institutional Animal Care and Use Committee (IACUC). After about one week of stabilization, mice weighing 18 to 23 g were used in the experiment.
To 100 mg of Mycobacterium tuberculosis H37RA (killed and desiccated; Difco, 231141, USA) which had been well triturated in mortar, was mixed 10 ml of Incomplete Freund's adjuvant (IFA; Difco, 263910, USA) to prepare 10 mg/ml of Complete Freund's adjuvant (CFA) storage solution, followed by refrigeration at 4° C. Myelin oligodendrocyte glycoprotein (MOG35-55; Peptron, Korea) was diluted with PBS (phosphate-buffered saline; Gibco, 10010, USA) to a final concentration of 2 mg/ml and stored at −20° C. (MOG35-55 storage solution).
50 μg of PTX (pertussis toxin, PTX; Sigma, P7208, USA) was dissolved in 500 μl of PBS to prepare 100 μg/ml of pertussis toxin (PTX) storage solution, followed by […] at 4° C. In the experiment, the PTX storage solution was diluted 50 times with PBS and used.
On the first day of the experiment (Day-1), the EAE-inducing sample solution was administered to mice by subcutaneous injection at 200 μl per mouse. On the same day (Day-1) and two days later (Day-3), 200 μl of PTX solution was intraperitoneally administered to mice twice.
The EAE clinical score is as follows.
All data were expressed as mean±SEM. The EAE clinical scores in the group treated with the test compound were compared to those in the negative control vehicle group by date. Statistical analysis was performed using GraphPad Prism (ver. 4.0) program, and the differences between the two groups were analyzed by Student's t-test.

Assay [2] shares this test system. In words: Pattern retinal conduction (pERG) amplitude in the EAE model. The conditions noted are these: for Pattern retinal conduction amplitude (pERG amplitude), Mean ± SEM: measured 28 days after induction. Type of assay: in vivo, female C57BL/6 mice. The protocol: (§1) For this experiment, female C57BL/6 mice were purchased from Janvier Labs of France and were maintained under conditions of temperature (22±1° C.), a light-and-darkness cycle of 12 hours and free access to water and food according to the protocol approved and investigated by the Animal Experiment Committee of Finland. All animals were kept isolated for a week after purchase and had time to adapt to the kennel. 11-week-old animals were used in the experiment. According to the criteria of the Animal Experiment Committee of Finland, in the case of a weight loss of 20% or more compared to the starting point, a degree of disease progression (clinical score) of 4 or more, or a failure in the righting reflex test in clinical score of 3, the experiment was stopped and animals were sacrificed for humanitarian purposes.
(§2) To induce EAE, an inoculum was purchased from Hooke Laboratories of the United States: the inoculum contains 100 μg of MOG35-55 peptide and 200 μg of heat-inactivated Mycobacterium tuberculosis, both dissolved in 100 μl of mineral oil. 100 μl of the inoculum was injected subcutaneously into both high and low parts of the back of mice. 100 μl pertussis toxin was injected into the peritoneum of the mice twice, two hours after inoculation and after 24 hours.
The test compound was dissolved in distilled water containing 30% polyethylene glycol 400 (PEG 400) and treated with an ultrasonic sonicator for 30 minutes. […]
Pattern retinal conduction was measured two days before and 28 days after EAE induction. […] After performing the test, the results were analyzed using Matlab software (MathWorks, Natick, Mass.).
(§3) Quantitative data were graphed (plotted) and analyzed using Prism software version 7 (GraphPad Software Inc. La Jolla, Calif.), the data were expressed as mean±standard deviation or standard error of mean. Comparisons with the vehicle group were analyzed using a t-test, and when the significance (p value) was less than 0.05, it was judged as a statistically significant difference.

Another assay concerns retinal ganglion cells. Put plainly: Number of retinal ganglion cells per unit area in retinal whole mounts (Brn3a, RBPMS staining) in the EAE model. It is filed as in vivo, female C57BL/6 mice. As for the experimental part: as §1, §2
The test compound was dissolved in distilled water containing 30% polyethylene glycol 400 (PEG 400) and treated with an ultrasonic sonicator for 30 minutes. The dissolved compound (20 mg/kg or 30 mg/kg) or vehicle was injected into the peritoneum once daily from the 12th day after EAE induction.
When the experiment was terminated or when the time of sacrifice for humanitarian purposes was reached, the mice were sacrificed by cardiac perfusion using a tissue fixative, and the eye and optic nerve were removed for further analysis.
The retinal whole mount samples were extracted from both eyes and stained with antibodies of RBPMS (RNA binding protein with multiple splicing) and Brn3a (brain-specific homeobox/POU domain protein 3A) which are retinal ganglion cell markers, followed by analyzation in a stereological manner (Stereo Investigator, MicroBrightfield, VT, USA).
as §3

For the molecule `NC(=O)O[C@@H](Cn1ncnn1)c1ccccc1Cl` [Test compound], the EAE clinical score in assay [1] (Day-1~Day-9 (before dosing)) was found to be 0.0 ± 0.0; in assay [1] (Day-10 (before dosing)), 0.5 ± 0.8; in assay [1] (Day-11, 10 ml/kg orally once a day from Day-11) it was 0.8 ± 1.0; in assay [1] (Day-12, 10 ml/kg orally once a day from Day-11), 1.2 ± 1.1; in assay [1] (Day-13, 10 ml/kg orally once a day from Day-11), 1.3 ± 0.7; in assay [1] (Day-14, 10 ml/kg orally once a day from Day-11), 2.0 ± 0.6. Besides, the EAE clinical score in assay [1] (Day-15, 10 ml/kg orally once a day from Day-11) is 1.9 ± 0.5; in assay [1] (Day-16, 10 ml/kg orally once a day from Day-11), 1.9 ± 0.6; in assay [1] (Day-17, 10 ml/kg orally once a day from Day-11), 2.1 ± 0.6; in assay [1] (Day-17, 10 ml/kg orally once a day from Day-11, listed as test compound), 2.1±0.6; in assay [1] (Day-18, 10 ml/kg orally once a day from Day-11) it was 1.8 ± 0.5; in assay [1] (Day-19, 10 ml/kg orally once a day from Day-11, p < 0.05 vs. vehicle) it was 1.7 ± 0.6. Moreover, the EAE clinical score in assay [1] (Day-20, 10 ml/kg orally once a day from Day-11, p < 0.05 vs. vehicle) came to 1.4 ± 0.5; in assay [1] (Day-21, 10 ml/kg orally once a day from Day-11, p < 0.01 vs. vehicle), 1.3 ± 0.4; in assay [1] (Day-22, 10 ml/kg orally once a day from Day-11, p < 0.01 vs. vehicle), 1.1 ± 0.5. Further, in assay [1] (Day-19 to Day-22, orally once a day from Day-11), the “Effect on EAE clinical symptoms compared to the vehicle group” value is reported as “significant inhibition of EAE clinical symptoms”. Moreover, the “Pattern retinal conduction amplitude (pERG amplitude), Mean ± SEM” value is reported as 7.803 in assay [2] (20 mg/kg i.p. once daily from 12th day after EAE induction) and 7.378 in assay [2] (30 mg/kg i.p. once daily from 12th day after EAE induction). Besides, the “Pattern retinal conduction amplitude compared to the baseline” value in assay [2] (20 mg/kg or 30 mg/kg, baseline measured two days before EAE induction) is listed as “no significant difference”. The “Number of retinal ganglion cells per unit area, Brn3a (individual values)” value with retinal ganglion cells (20 mg/kg i.p. once daily from 12th day after EAE induction, Brn3a marker) was 2675 and 1751 and 1443 and 2139 and 720 and 2221 and 1859 and 2489 and 1674 and 2035 and 2328 and 1389 and 1919. Moreover, in the assay with retinal ganglion cells (20 mg/kg i.p. once daily from 12th day after EAE induction, Brn3a marker, **p < 0.01 vs. vehicle), the “Number of retinal ganglion cells per unit area, Brn3a, Mean ± SEM” value was 1895. Besides, in the assay on retinal ganglion cells (20 mg/kg i.p. once daily from 12th day after EAE induction, RBPMS marker), the “Number of retinal ganglion cells per unit area, RBPMS (individual values)” value is 3005 and 2251 and 1778 and 2976 and 1781 and 2297 and 2479.9735 and 2722 and 2362 and 2485.7761 and 2784.6808 and 2292 and 2567. For the same molecule, the “Number of retinal ganglion cells per unit area, RBPMS, Mean ± SEM” value in the assay on retinal ganglion cells (20 mg/kg i.p. once daily from 12th day after EAE induction, RBPMS marker, **p < 0.01 vs. vehicle) was determined as 2445. In the assay with retinal ganglion cells (20 mg/kg, EAE-induced animals), the “Number of retinal ganglion cells per unit area compared to the vehicle group” value was “larger number of retinal ganglion cells per unit area”.
